Data on ten compounds can be found in US20240352029A1, “CDK Inhibitors And Their Use As Pharmaceuticals” (Prelude Therapeutics Incorporated, priority 2023, published 2024).

Where only a bound is given, the exact number is not on record here.

One experiment concerns OVCAR3 p-RB. The experiment in a line: pRB ICW assay in OVCAR3 cells. In kind it is cell-based. To be noted: Homo sapiens, OVCAR-3, 2 hours incubation with compound. The method, then: pRB ICW Assay in OVCAR3 Cells
OVCAR3 cells were maintained in RPMI (Corning, Catalog #: 10-040-CV) supplemented with 10% v/v FBS (Gibco, Catalog #: 26140-079), 1% v/v Penicillin Streptomycin (Gibco, Catalog #15140-122.) OVCAR3 cells grown at log phase were trypsinized, counted, and resuspended in fresh medium to reach a final density of 6.7e4 cells/ml and 75 μL of culture were dispensed into a 384-well plate (Falcon, cat #353962) using Multidrop Combi dispenser (Thermo Scientific). The next day, compounds were dispensed as a 9-point, ½ log serial dilution using a Tecan digital dispenser (D300e), and cells were incubated with compound for 2 hours in a humidified incubator at 37° C. A reference compound at a final concentration of 10 μM was used as a control for maximum inhibition. Each compound was tested in duplicates in each experiment. At the end of the incubation, 25 μl of 16% paraformaldehyde (Electron Microscopy, cat #15710) was slowly added to each well and the plate was incubated at room temperature (RT) for 30 minutes to fix cells. Cells were then permeabilized by incubating with 50 μl/well of wash buffer (1×PBS with 0.1% Triton X-100) 5×5 minutes, followed by 1 hour blocking with 30 μl/well of Odyssey blocking buffer (Li—COR, cat #927-40000), all at RT. Anti-phosphor RB antibody (Cell signaling 8516S) was diluted 1:1000 in Odyssey blocking buffer and 20 μl was added to all wells and incubated overnight in 4° C. with gently rocking. The next day, cells were washed 5×5 min with 50 μl/well of wash buffer, followed with 1 hour incubation with secondary antibody and DRAQ5 diluted in Odyssey blocking buffer (1:500 dilution for secondary antibody and 1:2000 dilution for DRAQ5), 5×5 min washes, and one last wash with water. Plates were dried in 37° C. oven for 5 min and scanned using Li—COR Odyssey CLx imaging system to acquire intensities at 700 and 800 nm channels.

For the next experiment, the target named is T1, CDK4/Cyclin D1 (Homo sapiens, UniProt P11802).
T1 construct: purchased ProQinase; host or cells: insect cell
The experiment in a line: CDK4/CyclinD1 enzymatic activity assay (TR-FRET). In kind it is biochemical. To be noted: ATP 2 mM final, read-out: CDK4_D1 IC50. The method, then: CDK4/CyclinD1 Enzymatic Activity Assay
(§1) The inhibitory activity of compounds was evaluated in vitro using TR-FRET assay with white 384-well low volume microplate (Greiner Bio-One). CDK4/Cyclin D1 catalyzed phosphorylation of peptide in the presence and absence of compounds was measured and used in IC50 determination. Recombinant protein complex CDK4/Cyclin D1, expressed from insect cell, was purchased from ProQinase. Testing compounds were dissolved in DMSO at 1 mM and tested in 9-dose IC50 mode. The reaction mixture was prepared by mixing CDK4/CyclinD1 (1 nM final), ULight-4E-BP1 (100 nM final, Perkinelmer, TRF0128-D), and ATP (2 mM final) in assay buffer (20 mM of HEPES pH 7.4, 1 mM of EGTA, 0.05% BSA, 0.005% Tween 20, and 1 mM TCEP). The compound of interest in DMSO was added to each well in 3-fold serial dilution by dispenser (TECAN D300E) to make a 9.9 μL of reaction mixture. After 20 minutes preincubation at room temperature, 0.1 μL MgCl2 (10 mM final) was added to initiate the reaction. Following a 45 minutes incubation at 37° C., the reaction was stopped by addition of 2 μL of quenching buffer consisting of Lance detection buffer (Perkinelmer CR97-100C), LANCE Ultra Europium-anti-P-4E-BP1 (Perkinelmer, TRF0216-D), EDTA, and incubate at room temperature for additional 60 minutes in dark. The reaction signal was measured by Envision multimode plate reader (PerkinElmer, 2102-0010). IC50 values were determined by fitting the data to the standard 4 parameters with Hill Slope using GraphPad Prism software.
A general note: TR-FRET usually uses a lanthanide donor and a delayed reading to cut background.

The next experiment concerns the target CDK2/Cyclin E2 (Homo sapiens, UniProt P24941). The experiment is described as follows: CDK2/CyclinE2 enzymatic activity assay (TR-FRET). In kind it is biochemical. To be noted: ATP 1 mM final, read-out: CDK2_E1 IC50. The method, then:
CDK2/CyclinE2 Enzymatic Activity Assay
as §1, with “Bio-One). CDK2/Cyclin E2” for “Bio-One). CDK4/Cyclin D1”, “complex CDK2/Cyclin E2,” for “complex CDK4/Cyclin D1,”, “mixing CDK2/CyclinE2” for “mixing CDK4/CyclinD1”, “ULight-4E-BP1 (50” for “ULight-4E-BP1 (100”, “ATP (1” for “ATP (2”

T1 sequence (P11802 whole entry): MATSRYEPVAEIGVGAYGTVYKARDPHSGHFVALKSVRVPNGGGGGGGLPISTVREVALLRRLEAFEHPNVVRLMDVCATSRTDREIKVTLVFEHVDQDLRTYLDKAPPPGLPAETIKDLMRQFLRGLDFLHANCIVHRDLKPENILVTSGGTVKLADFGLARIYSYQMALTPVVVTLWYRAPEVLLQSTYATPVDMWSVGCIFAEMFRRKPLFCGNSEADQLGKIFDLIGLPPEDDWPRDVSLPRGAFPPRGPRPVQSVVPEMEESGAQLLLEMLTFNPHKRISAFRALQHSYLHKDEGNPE
T1 sequence (P24385 whole entry partner): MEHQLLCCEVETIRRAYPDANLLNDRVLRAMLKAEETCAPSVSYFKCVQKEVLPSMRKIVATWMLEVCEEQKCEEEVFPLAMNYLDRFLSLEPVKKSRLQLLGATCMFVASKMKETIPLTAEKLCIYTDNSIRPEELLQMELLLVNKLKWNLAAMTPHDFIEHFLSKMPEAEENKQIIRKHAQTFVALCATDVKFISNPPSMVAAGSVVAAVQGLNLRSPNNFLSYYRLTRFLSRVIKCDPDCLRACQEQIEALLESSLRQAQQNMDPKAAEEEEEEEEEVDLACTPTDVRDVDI

Consider `CC1(C)NC(=O)c2cc(-c3nc(NC4CCN(S(C)(=O)=O)CC4)ncc3C(F)(F)F)sc21` [Example 12, 6,6-dimethyl-2-(2-((1-(methylsulfonyl)piperidin-4-yl)amino)-5-(trifluoro-methyl)pyrimidin-4-yl)-5,6-dihydro-4H-thieno[2,3-c] pyrrol-4-one], for which the IC50 in the experiment with OVCAR3 p-RB, on CDK4/Cyclin D1 and on CDK2/Cyclin E2 was no more than 100 nM in each case.
For the compound `CC1(C)NC(=O)c2cc(-c3nc(N[C@@H]4CCN(S(C)(=O)=O)C[C@H]4F)ncc3C(F)(F)F)sc21` [Example 13, 2-(2-(((3R,4R)-3-fluoro-1-(methylsulfonyl)piperidin-4-yl)amino)-5-(trifluoro-methyl)pyrimidin-4-yl)-6,6-dimethyl-5,6-dihydro-4H-thieno[2,3-c]pyrrol-4-one], the IC50 in the experiment on OVCAR3 p-RB, on CDK4/Cyclin D1 and on CDK2/Cyclin E2 was no more than 100 nM in each case.
For `CC1(C)NC(=O)c2cc(-c3nc(N[C@H]4CCN(S(C)(=O)=O)C[C@H]4F)ncc3C(F)(F)F)sc21` [Example 14, 2-(2-(((3R,4S)-3-fluoro-1-(methylsulfonyl)piperidin-4-yl)amino)-5-(trifluoro-methyl)pyrimidin-4-yl)-6,6-dimethyl-5,6-dihydro-4H-thieno[2,3-c]pyrrol-4-one], the IC50 in the experiment with OVCAR3 p-RB, on CDK4/Cyclin D1 and at CDK2/Cyclin E2 was no more than 100 nM each time.
In the case of `Cn1cnc(S(=O)(=O)N2CC[C@H](Nc3ncc(C(F)(F)F)c(-c4cc5c(s4)C(C)(C)NC5=O)n3)[C@H](F)C2)c1` [Example 15, 2-(2-(((3R,4S)-3-fluoro-1-((1-methyl-1H-imidazol-4-yl)sulfonyl)piperidin-4-yl)amino)-5-(trifluoro-methyl)pyrimidin-4-yl)-6,6-dimethyl-5,6-dihydro-4H-thieno[2,3-c]pyrrol-4-one], the IC50 in the experiment with OVCAR3 p-RB, at CDK4/Cyclin D1 and at CDK2/Cyclin E2 was no more than 100 nM each time.
For the compound `Cn1cc(S(=O)(=O)N2CC[C@@H](Nc3ncc(C(F)(F)F)c(-c4cc5c(s4)C(C)(C)NC5=O)n3)[C@H](F)C2)cn1` [Example 16, 2-(2-(((3R,4R)-3-fluoro-1-((1-methyl-1H-pyrazol-4-yl)sulfonyl)piperidin-4-yl)amino)-5-(trifluoro-methyl)pyrimidin-4-yl)-6,6-dimethyl-5,6-dihydro-4H-thieno[2,3-c]pyrrol-4-one], the IC50 with OVCAR3 p-RB, on CDK4/Cyclin D1 and on CDK2/Cyclin E2 was no more than 100 nM in each case.
In the case of `CS(=O)(=O)N1CCC(Nc2ncc(C(F)(F)F)c(-c3cc4c(s3)CNC4=O)n2)CC1` [Example 17, 2-(2-((1-(methylsulfonyl)piperidin-4-yl)amino)-5-(trifluoromethyl)pyrimidin-4-yl)-5,6-dihydro-4H-thieno[2,3-c]pyrrol-4-one], the IC50 in the experiment on OVCAR3 p-RB, on CDK4/Cyclin D1 and at CDK2/Cyclin E2 was no more than 100 nM each time.
Turning to `Cn1cc(S(=O)(=O)N2CCC(Nc3ncc(C(F)(F)F)c(-c4cc5c(s4)CNC5=O)n3)CC2)cn1` [Example 20, 2-(2-((1-((1-methyl-1H-pyrazol-4-yl)sulfonyl)piperidin-4-yl)amino)-5-(trifluoromethyl)pyrimidin-4-yl)-5,6-dihydro-4H-thieno[2,3-c]pyrrol-4-one], the IC50 with OVCAR3 p-RB, at CDK4/Cyclin D1 and on CDK2/Cyclin E2 was no more than 100 nM each time.
On to `C[C@@H]1CN(S(=O)(=O)c2cnn(C)c2)CC[C@@H]1Nc1ncc(C(F)(F)F)c(-c2cc3c(s2)CNC3=O)n1` [Example 21, 2-(2-(((3R,4S)-3-methyl-1-((1-methyl-1H-pyrazol-4-yl)sulfonyl)piperidin-4-yl)amino)-5-(trifluoro-methyl)pyrimidin-4-yl)-5,6-dihydro-4H-thieno[2,3-c]pyrrol-4-one], for which the IC50 in the experiment with OVCAR3 p-RB, at CDK4/Cyclin D1 and on CDK2/Cyclin E2 was no more than 100 nM in each case.
Take `Cn1cc(S(=O)(=O)N2CCC(Nc3ncc(C(F)(F)F)c(-c4cc5c(s4)C(=O)NC5)n3)CC2)cn1` [Example 23, 2-(2-((1-((1-Methyl-1H-pyrazol-4-yl)sulfonyl)piperidin-4-yl)amino)-5-(trifluoromethyl)pyrimidin-4-yl)-4,5-dihydro-6H-thieno[2,3-c]pyrrol-6-one]: the IC50 (usually the point on the concentration scale where inhibition reaches its midpoint) with OVCAR3 p-RB was 100 to 500 nM; at CDK4/Cyclin D1 it was 100 to 500 nM; at CDK2/Cyclin E2 it was no more than 100 nM.
Turning to `CS(=O)(=O)N1CCC(Nc2ncc(C(F)(F)F)c(-c3cc4c(s3)C(=O)NC4)n2)CC1` [Example 24, 2-(2-((1-(Methylsulfonyl)piperidin-4-yl)amino)-5-(trifluoromethyl)pyrimidin-4-yl)-4,5-dihydro-6H-thieno[2,3-c]pyrrol-6-one], the IC50 in the experiment with OVCAR3 p-RB is greater than 500 nM; at CDK4/Cyclin D1, greater than 500 nM; on CDK2/Cyclin E2, no more than 100 nM.
